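Dose response: 5 concentrations. Exposure: 48 h. Format: 96-well plates. Endpoint: linear interpolation; highest concentration if not reached. TGI marks complete inhibition of growth.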 Where a SMILES comes first, the peptide text is derived from it. [ ]: non-standard residue; d: D form. The star is where a group is joined. ξ: configuration not given here. ξD = NC(CC(=O)O)C(=O)O; Boc = CC(C)(C)OC(=O)*; Aib = CC(C)(N)C(=O)O; OBn = c1ccc(CO*)cc1
Legend:
Experiment in all cases: inhibition of tumour cell growth, NCI panel, 48 h
A498 renal = tested on: A498 renal
ACHN renal = tested on: ACHN renal
CCRF-CEM leukemia = tested on: CCRF-CEM leukemia
HCT-15 colon = tested on: HCT-15 colon
LOX IMVI melanoma = tested on: LOX IMVI melanoma
MCF7 breast = tested on: MCF7 breast
MDA-MB-231 breast = tested on: MDA-MB-231 breast
MDA-MB-435 = tested on: MDA-MB-435
NCI-H226 lung = tested on: NCI-H226 lung
OVCAR-4 ovarian = tested on: OVCAR-4 ovarian
OVCAR-8 ovarian = tested on: OVCAR-8 ovarian
RPMI-8226 leukemia = tested on: RPMI-8226 leukemia
RXF 393 renal = tested on: RXF 393 renal
SF-539 CNS = tested on: SF-539 CNS
SK-MEL-2 melanoma = tested on: SK-MEL-2 melanoma
SW-620 colon = tested on: SW-620 colon
SR leukemia = tested on: SR leukemia

Structure (SMILES)	TGI (A498 renal) [µM]	TGI (ACHN renal) [µM]	TGI (CCRF-CEM leukemia) [µM]	TGI (HCT-15 colon) [µM]	TGI (LOX IMVI melanoma) [µM]	TGI (MCF7 breast) [µM]	TGI (MDA-MB-231 breast) [µM]	TGI (MDA-MB-435) [µM]	TGI (NCI-H226 lung) [µM]	TGI (OVCAR-4 ovarian) [µM]	TGI (OVCAR-8 ovarian) [µM]	TGI (RPMI-8226 leukemia) [µM]	TGI (RXF 393 renal) [µM]	TGI (SF-539 CNS) [µM]	TGI (SK-MEL-2 melanoma) [µM]	TGI (SW-620 colon) [µM]	TGI (SR leukemia) [µM]
NC1CCN(c2nc3ccccc3c3c2CCCC3)CC1	22.7	22.4	15.2	17.7	14.2	8.6	12.8	7.61	24.3	4.63	32.8	11.1	11.2	11.8	10.5	12.7	–
Cc1nc(C(N)=S)sc1C(=O)CC(=O)C(=O)Nc1ccc(Br)cc1	> 100	> 100	> 100	> 100	> 100	> 100	> 100	> 100	> 100	> 100	> 100	> 100	> 100	> 100	> 100	> 100	–
O=C(C[C@@H]1CCCN2CCCC[C@H]12)N1c2ccccc2Sc2ccc(Cl)cc21	–	27.2	35.1	30.4	27.3	35.5	28.4	29.3	46	–	37.2	54.8	29	32.1	–	26.8	53
CCC1C(NC(=O)OC)C(=O)N1[C@@H](C)c1ccccc1 (some centres undefined)	> 100	> 100	–	> 100	> 100	> 100	> 100	> 100	> 100	> 100	> 100	> 100	> 100	> 100	> 100	> 100	> 100
CC(C)(C)OC(=O)NC(CC(=O)OCc1ccccc1)C(=O)NC(C)(C)C(N)=O (centres undefined) (Boc-[ξD](OBn)-[Aib]-NH2)	> 100	> 100	> 100	> 100	> 100	> 100	> 100	> 100	> 100	> 100	> 100	> 100	> 100	> 100	> 100	> 100	–
CCCC(=O)OCC1OC(n2cc(F)c(=O)[nH]c2=O)C(F)C1O (centres undefined)	–	> 100	> 100	> 100	> 100	> 100	> 100	> 100	> 100	> 100	> 100	> 100	> 100	> 31.6	> 100	> 100	> 100
N#CC(O)CCOCc1ccccc1 (centres undefined)	> 100	> 100	> 100	> 100	> 100	> 100	> 100	> 100	> 100	> 100	> 100	> 100	–	> 100	> 100	> 100	> 100
O=C(NC(CS)C(=O)O)c1c2ccccc2nc2ccccc12 (centres undefined)	> 100	> 100	> 100	> 100	> 100	> 100	> 100	16	> 100	> 100	> 100	> 100	–	> 100	> 100	> 100	> 100
CC(C(=O)NCNC(=O)c1ccccc1)C(=O)Nc1ccccc1 (centres undefined)	–	> 100	> 100	> 100	–	> 100	> 100	> 100	> 100	–	> 100	> 100	> 100	> 100	> 100	> 100	–
COc1cc(/C=C2\CCC(C)C3=C2N=c2s/c(=C/c4ccc(Cl)cc4)c(=O)n2C3c2cc(OC)c(OC)c(OC)c2)cc(OC)c1OC (centres undefined)	> 100	> 100	> 100	> 100	> 100	> 100	> 100	> 100	–	> 100	> 100	> 100	> 100	–	> 100	> 100	> 100
O=C1NC(=O)C(CCC(=O)c2cccc3ccccc23)C(=O)N1	> 100	> 100	–	> 100	> 100	> 100	> 100	> 100	> 100	> 100	> 100	> 100	> 100	> 100	> 100	> 100	> 100
O=S(Cc1ccccc1)c1ccccc1Cn1cccc1 (centres undefined)	–	> 100	> 100	> 100	> 100	> 100	> 100	> 100	–	> 100	–	> 100	> 100	> 100	> 100	> 100	83.4
C/C(=N\O)c1ccc(OCc2cc(C(F)(F)F)cc(C(F)(F)F)c2)cc1	> 100	> 100	89.3	> 100	> 100	> 100	> 100	> 100	> 100	> 100	> 100	–	72.4	> 100	> 100	> 100	> 100
CSc1nc(-c2ccccc2)[nH]c(=O)n1	> 100	> 100	> 100	> 100	–	> 100	> 100	> 100	> 100	> 100	> 100	> 100	> 100	> 100	> 100	> 100	–
COc1cccc([C@@H]2C/C(=N\NC(=O)C(=O)N[C@@H](C)c3ccccc3)c3ccccc3N2)c1	> 100	> 100	> 100	> 100	> 100	> 100	> 100	48.8	> 100	> 100	–	> 100	> 100	30.4	> 100	> 100	–
S=C(NCCc1ccccn1)N/N=C(\c1ccccc1)c1ccccn1	0.951	17.9	> 100	> 86.5	36.1	> 100	> 100	> 100	–	54.7	17.4	> 58	52.8	27.1	> 100	> 100	> 57.7
Cc1n[nH]c(=O)n1C1CC1	–	> 100	> 100	> 100	> 100	> 100	> 100	> 100	> 100	> 100	> 100	> 100	> 100	> 100	–	> 100	> 100
CCOC(=O)C1CCCc2sc(N)c(C#N)c21 (centres undefined)	> 100	> 100	–	> 100	–	> 100	> 100	–	> 100	–	> 100	> 100	> 100	–	> 100	> 100	> 100
Cn1cc(NC(=O)Nc2cc(C(=O)Nc3cc(C(=O)Nc4ccc5cc(S(=O)(=O)O)cc(S(=O)(=O)O)c5c4)n(C)c3)n(C)c2)cc1C(=O)Nc1cc(C(=O)Nc2ccc3cc(S(=O)(=O)O)cc(S(=O)(=O)O)c3c2)n(C)c1	–	> 100	> 100	> 100	> 100	> 100	> 100	> 100	> 100	> 100	> 100	> 100	> 100	> 100	–	> 100	> 100
COCN1C(=O)[C@@H]2C[C@@H](O)CN2C(=O)c2ccccc21	> 100	> 100	> 100	> 100	> 100	> 100	> 100	> 100	–	> 100	> 100	> 100	> 100	–	> 100	> 100	> 100
O=c1c2ccccc2n2c(-c3ccccc3O)nnc2n1-c1ccccc1	> 100	> 100	> 100	> 100	> 100	> 100	> 100	> 100	> 100	> 100	> 100	–	> 100	> 100	> 100	> 100	> 100
COc1cc(C2c3cc4c(cc3OC(NNC(N)=S)C2C)OCO4)cc(OC)c1OC (centres undefined)	34.7	> 100	–	> 100	> 100	> 100	8.68	–	21	> 100	> 55.1	0.847	–	0.523	> 100	> 100	1.42
CN(C)c1ccc(N=C2N=C(Nc3ccccc3)C(=Nc3ccccc3)S2)cc1	> 100	> 100	> 100	> 100	> 100	> 100	> 100	> 100	> 100	> 100	> 100	–	> 100	> 100	> 100	> 100	> 100

Reference: PubChem BioAssay (NCI)
